# Assay results: patent US20250034186A1, “ANTIVIRAL COMPOUNDS” (priority 2020, published 2025)
# Key:
# [1] = MT-4 cytotoxicity assay; type: cell-based; details: human, MT-4 cells (uninfected), 4-5 days, read-out: CC50 MT4
# Protocol: Cytotoxicity of the compound of Formula I and compounds 1, 2, and 6 was determined in uninfected cells using the cell viability reagent in a similar fashion as described before for other cell types (Cihlar et al., Antimicrob Agents Chemother. 2008, 52(2):655-65.). HEp-2 (1.5×10^3 cells/well) and MT-4 (2×10^3 cells/well) cells were plated in 384-well plates and incubated with the appropriate medium containing 3-fold serially diluted compound ranging from 15 nM to 100,000 nM. Cells were cultured for 4-5 days at 37° C. Following the incubation, the cells were allowed to equilibrate to 25° C., and cell viability was determined by adding Cell-Titer Glo viability reagent. The mixture was incubated for 10 min, and the luminescence signal was quantified using an Envision plate reader. Untreated cell and cells treated at 2 μM puromycin (Sigma, St. Louis, MO) serve as 100% and 0% cell viability control, respectively.
# [2] = Huh-7 cytotoxicity assay; type: cell-based; details: human, Huh7 cells
# Protocol: Compounds were tested in a high-throughput 384-well assay format for cytotoxicity in Huh7 cells (Hepatocarcinoma cell line). Cells were diluted in media (DMEM (15-018-CM), 10% FBS, 1% NEAA, 1% PSG) to 16.6K cells/mL and plated at 90 uL/well into 384 well poly-D-lysine coated assay plates and placed in an incubator at 37° C. and 5% CO2. Compounds were serially diluted (1:3) in 100% DMSO in 384-well plates in quadruplicate. DMSO and 2 mM Puromycin were included as negative and positive controls respectively. 24 hours after cell plating, a 384 channel pipettor was used to transfer 0.4 uL from the compound plate to the assay plate. Assay plates were returned to the incubator. After 5 days, assay plates were washed with 80 uL/well of PBS before addition of 20 μL of Cell Titer Glo. Assay plates were read on the Envision plate reader. […] CC50 values were calculated in Accord (on-line tool) using a one-site dose-response model to generate sigmoidal curve fits.
# [3] = tested on: RSV A2; assay: RSV NHBE EC50, RSV A2 antiviral assay; type: cell-based; details: for EC50: human respiratory syncytial virus, 96 h, RSV A2 in NHBE cells, 4 days
# Protocol: Normal human bronchial epithelial (NHBE) cells were purchased from Lonza (Walkersville, MD, Cat #CC-2540) and cultured in Bronchial Epithelial Growth Media (BEGM) (Lonza, Walkersville, MD, Cat #CC-3170). The cells were passaged 1-2 times per week to maintain <80% confluency. The NHBE cells were discarded after 6 passages in culture.
# To conduct the RSV A2 antiviral assay, NHBE cells were plated in 96-well plates at a density of 7,500 cells per well in BEGM and allowed to attach overnight at 37° C. Following attachment, 100 μL of cell culture media was removed and 3-fold serially diluted compound was added using a Hewlett-Packard D300 Digital Dispenser. The final concentration of DMSO was normalized to 0.05%. Following compound addition, the NHBE cells were infected by the addition of 100 μL of RSV A2 at a titer of 1×10^4.5 tissue culture infectious doses/mL in BEGM and then incubated at 37° C. for 4 days. The NHBE cells were then allowed to equilibrate to 25° C. and cell viability was determined by removing 100 μL of culture medium and adding 100 μL of Cell-Titer Glo viability reagent. The mixtures were incubated for 10 minutes at 25° C., and the luminescence signal was quantified on an Envision luminescence plate reader.
# [4] = Stability assay in human hepatic S9 fractions; type: in vitro ADME; details: 37° C., NADPH and UDPGA, read-out: Hum HepS9 t1/2
# Protocol: For S9 stability, the compounds were incubated at 2 μM in cynomolgus monkey or human hepatic S9 fractions for up to 90 min at 37° C. in the presence of NADPH and UDPGA (Phase I and Phase II cofactor, Sigma-Aldrich). At desired time points following compound addition, samples were quenched with 9 volumes of an aqueous solution containing internal standard, 50% acetonitrile and 25% methanol. Sample plates were centrifuged at 3000 g for 30 min, and 10 μL of the resulting solution was analyzed by LC-MS/MS. Data (analyte to internal standard peak area ratio) were plotted on a semi log scale and fitted using an exponential fit. The half-life (T1/2) was determined assuming first order kinetics.
# [5] = tested on: HCV replicon 2A; assay: HCV Rep 2A EC50; type: cell-based; details: for EC50: Hepatitis C virus, 72 h, HCV replicon cells, 3 days
# Protocol: Compounds were serially diluted in ten steps of 1:3 dilutions in 384-well plates. All serial dilutions were performed in four replicates per compound within the same 384-well plate. […] To each well of a black polystyrene 384-well plate (Greiner Bio-one, Monroe, NC), 90 μL of cell culture medium (without Geneticin) containing 2000 suspended HCV replicon cells was added with a Biotek μFlow workstation. For compound transfer into cell culture plates, 0.4 μL of compound solution from the compound serial dilution plate was transferred to the cell culture plate on a Biomek FX workstation. The DMSO concentration in the final assay wells was 0.44%. The plates were incubated for 3 days at 37° C. with 5% CO2 and 85% humidity. The HCV replicon assay was a multiplex assay, able to assess both cytotoxicity and antireplicon activity from the same well. The CC50 assay was performed first. The media in the 384-well cell culture plate was aspirated, and the wells were washed four times with 100 μL of PBS each, using a Biotek ELX405 plate washer. A volume of 50 μL of a solution containing 400 nM calcein AM (Anaspec, Fremont, CA) in 1×PBS was added to each well of the plate with a Biotek μFlow workstation. The plate was incubated for 30 min at room temperature before the fluorescence signal (excitation 490 nm, emission 520 nm) was measured with a Perkin-Elmer Envision plate reader. The EC50 assay was performed in the same wells as the CC50 assay. The calcein-PBS solution in the 384-well cell culture plate was aspirated with a Biotek ELX405 plate washer. A volume of 20 μL of Dual-Glo luciferase buffer (Promega, Madison, WI) was added to each well of the plate with a Biotek μFlow Workstation. The plate was incubated for 10 min at room temperature. […] The plate was then incubated at room temperature for 10 min before the luminescence signal was measured with a Perkin-Elmer Envision Plate Reader.
Structure (SMILES),CC50 [1],CC50 at 5 days [2],EC50 [3],half-life at 2 μM [4],EC50 [5],"times as potent as compound 7, RSV NHBE ([3]; EC50 ratio vs compound 7)","times more potent relative to compound 2, HCV Rep 2A ([5]; EC50 ratio vs compound 2)","more potent than the compound of Formula Ib, RSV NHBE ([3]; EC50 ratio vs Formula Ib)","more potent relative to compound 1, RSV NHBE ([3]; EC50 ratio vs compound 1)","times more potent relative to compound 3, RSV NHBE ([3]; EC50 ratio vs compound 3)","times more potent relative to compound 4, RSV NHBE ([3]; EC50 ratio vs compound 4)","times more potent relative to compound 5, RSV NHBE ([3]; EC50 ratio vs compound 5)"
"CCOC(=O)[C@H](C)NP(=O)(OC[C@@]1(C#N)O[C@@H](c2ccc3c(N)ncnn23)[C@H](O)[C@@H]1O)Oc1ccccc1 (stereo partly shown) [Compound 1, reference compound]",52.4 µM,> 44.4 µM,549 nM,12 min,–,–,–,–,–,–,–,–
"CCC(CC)COC(=O)[C@H](C)NP(=O)(OC[C@@]1(C#N)O[C@@H](c2ccc3c(N)ncnn23)[C@H](O)[C@@H]1O)Oc1ccccc1 (stereo partly shown) [Compound 2, reference compound]",> 43.7 µM,> 44.4 µM,75 nM,12 min,1830 nM,–,–,–,–,–,–,–
"CCC(CC)COC(=O)[C@H](C)N[P@](=O)(OC[C@@]1(C#N)O[C@@H](c2ccc3c(N)ncnn23)[C@H](O)[C@@H]1O)Oc1ccccc1 [Compound 6, 2-ethylbutyl ((S)-(((2R,3S,4R,5S)-5-(4-aminopyrrolo[2,1-f][1,2,4]triazin-7-yl)-2-cyano-3,4-dihydroxytetrahydrofuran-2-yl)methoxy)(phenoxy)phosphoryl)alaninate]",38.8 µM,17.2 µM,127 nM,7 min,–,0.7 times,–,–,–,–,–,–
"C[C@H](N[P@](=O)(OC[C@@]1(C#N)O[C@@H](c2ccc3c(N)ncnn23)[C@H](O)[C@@H]1O)Oc1ccccc1)C(=O)OC1CCCCC1 [Formula I, cyclohexyl ((S)-(((2R,3S,4R,5S)-5-(4-aminopyrrolo[2,1-f][1,2,4]triazin-7-yl)-2-cyano-3,4-dihydroxytetrahydrofuran-2-yl)methoxy)(phenoxy)phosphoryl)-L-alaninate]",56.2 µM,> 88.9 µM,124 nM,31 min,1270 nM,–,~1.4 times,5.1,~4.4,about 9.3 times,about 7.1 times,about 10.0 times
